Tests used:
human JAK3 = target: T1, human JAK3 (Homo sapiens, UniProt P52333); test: Alphascreen tyrosine kinase enzyme assay, JAK3 kinase domain; type: biochemical; settings: read-out: JAK3 IC50_nM
T1 construct: The kinase domain of human JAK3 was amplified; GST (N); made in house; host or cells: Sf9 insect cells (baculovirus)
Outline: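 GST-affinity-purified human JAK3 kinase domain (baculovirus/Sf9) was pre-incubated 20 min with compound ([…]) in HEPES pH 7.5 buffer with MgCl2, vanadate and Tween 20. Biotinylated peptide substrate ([…]) and ATP were then added; phosphotyrosine was detected by AlphaScreen PY100 acceptor and streptavidin donor beads after 2–3 h.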

BaF3 wild-type cells = test: Cellular screening, BaF3 wild-type cells, Alamar Blue; type: cell-based; settings: Mus musculus, 40 hr, read-out: BAF3wt IC50_nM
Outline: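 Compounds, screened from dilution plates at 20 μM, were added as 10× final stocks to cells grown in DMEM/10% FCS/10% WEHI 3B conditioned medium. Cells were seeded at 1.1× final (50,000–200,000 cells/mL) and incubated 40 hr at 37° C, 5% CO2. Viability was read at 544 nm after a further 4–6 hours with Alamar Blue.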

Blk(m) = target: T2, Blk(m) (Mus musculus, UniProt P16277); test: Upstate KinaseProfiler enzyme assay, Blk; type: biochemical; settings: 500 nM compound; read-out: Percent inhibition at 500 nM Blk(m)
T2 construct: purchased Upstate Biotechnology (Dundee, UK), KinaseProfiler service
Outline: (§1)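 Outsourced biochemical kinase assays; enzyme stocks at 10× working concentration in MOPS/EDTA/β-mercaptoethanol/Brij-35/glycerol/BSA buffer, pH 7.0.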

Bmx(h) = target: T3, Bmx(h) (Homo sapiens, UniProt P51813); test: Upstate KinaseProfiler enzyme assay, Bmx; type: biochemical; settings: 500 nM compound; read-out: Percent inhibition at 500 nM Bmx(h)
T3 construct: purchased Upstate Biotechnology (Dundee, UK), KinaseProfiler service
T3 sequence (P51813 1-675): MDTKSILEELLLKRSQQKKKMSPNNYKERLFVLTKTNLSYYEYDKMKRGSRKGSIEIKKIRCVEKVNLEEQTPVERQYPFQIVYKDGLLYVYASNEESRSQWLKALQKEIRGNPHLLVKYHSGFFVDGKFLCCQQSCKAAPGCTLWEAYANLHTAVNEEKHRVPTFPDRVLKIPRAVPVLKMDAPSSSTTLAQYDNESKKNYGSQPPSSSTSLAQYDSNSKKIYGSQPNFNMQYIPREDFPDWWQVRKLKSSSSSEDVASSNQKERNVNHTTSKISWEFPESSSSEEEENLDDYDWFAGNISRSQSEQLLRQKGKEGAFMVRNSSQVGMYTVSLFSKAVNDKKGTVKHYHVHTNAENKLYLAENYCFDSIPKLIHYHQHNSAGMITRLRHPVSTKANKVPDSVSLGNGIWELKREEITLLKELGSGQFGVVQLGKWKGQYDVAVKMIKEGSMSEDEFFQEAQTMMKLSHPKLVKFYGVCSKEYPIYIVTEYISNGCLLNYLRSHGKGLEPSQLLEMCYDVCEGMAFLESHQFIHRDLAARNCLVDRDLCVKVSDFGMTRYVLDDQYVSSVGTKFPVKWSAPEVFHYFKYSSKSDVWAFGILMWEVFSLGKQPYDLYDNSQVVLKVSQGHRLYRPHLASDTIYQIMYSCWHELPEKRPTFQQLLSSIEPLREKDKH
Outline: as §1

BTK(h) = target: T4, BTK(h) (Homo sapiens, UniProt Q06187); test: Upstate KinaseProfiler enzyme assay, BTK; type: biochemical; settings: 500 nM compound; read-out: Percent inhibition at 500 nM BTK(h)
T4 construct: purchased Upstate Biotechnology (Dundee, UK), KinaseProfiler service
Outline: as §1

Flt 1(h) = target: T5, Flt 1(h) (Homo sapiens, UniProt P17948); test: Upstate KinaseProfiler enzyme assay, Flt 1; type: biochemical; settings: 500 nM compound; read-out: Percent inhibition at 500 nM Flt 1(h)
T5 construct: purchased Upstate Biotechnology (Dundee, UK), KinaseProfiler service
Outline: as §1

Flt 4(h) = target: T6, Flt 4(h) (Homo sapiens, UniProt P35916); test: Upstate KinaseProfiler enzyme assay, Flt 4; type: biochemical; settings: 500 nM compound; read-out: Percent inhibition at 500 nM Flt 4(h)
T6 construct: purchased Upstate Biotechnology (Dundee, UK), KinaseProfiler service
Outline: as §1

KDR(h) = target: T7, KDR(h) (Homo sapiens, UniProt P35968); test: Upstate KinaseProfiler enzyme assay, KDR; type: biochemical; settings: 500 nM compound; read-out: Percent inhibition at 500 nM KDR(h)
T7 construct: purchased Upstate Biotechnology (Dundee, UK), KinaseProfiler service
Outline: as §1

T7 sequence (P35968 20-1356): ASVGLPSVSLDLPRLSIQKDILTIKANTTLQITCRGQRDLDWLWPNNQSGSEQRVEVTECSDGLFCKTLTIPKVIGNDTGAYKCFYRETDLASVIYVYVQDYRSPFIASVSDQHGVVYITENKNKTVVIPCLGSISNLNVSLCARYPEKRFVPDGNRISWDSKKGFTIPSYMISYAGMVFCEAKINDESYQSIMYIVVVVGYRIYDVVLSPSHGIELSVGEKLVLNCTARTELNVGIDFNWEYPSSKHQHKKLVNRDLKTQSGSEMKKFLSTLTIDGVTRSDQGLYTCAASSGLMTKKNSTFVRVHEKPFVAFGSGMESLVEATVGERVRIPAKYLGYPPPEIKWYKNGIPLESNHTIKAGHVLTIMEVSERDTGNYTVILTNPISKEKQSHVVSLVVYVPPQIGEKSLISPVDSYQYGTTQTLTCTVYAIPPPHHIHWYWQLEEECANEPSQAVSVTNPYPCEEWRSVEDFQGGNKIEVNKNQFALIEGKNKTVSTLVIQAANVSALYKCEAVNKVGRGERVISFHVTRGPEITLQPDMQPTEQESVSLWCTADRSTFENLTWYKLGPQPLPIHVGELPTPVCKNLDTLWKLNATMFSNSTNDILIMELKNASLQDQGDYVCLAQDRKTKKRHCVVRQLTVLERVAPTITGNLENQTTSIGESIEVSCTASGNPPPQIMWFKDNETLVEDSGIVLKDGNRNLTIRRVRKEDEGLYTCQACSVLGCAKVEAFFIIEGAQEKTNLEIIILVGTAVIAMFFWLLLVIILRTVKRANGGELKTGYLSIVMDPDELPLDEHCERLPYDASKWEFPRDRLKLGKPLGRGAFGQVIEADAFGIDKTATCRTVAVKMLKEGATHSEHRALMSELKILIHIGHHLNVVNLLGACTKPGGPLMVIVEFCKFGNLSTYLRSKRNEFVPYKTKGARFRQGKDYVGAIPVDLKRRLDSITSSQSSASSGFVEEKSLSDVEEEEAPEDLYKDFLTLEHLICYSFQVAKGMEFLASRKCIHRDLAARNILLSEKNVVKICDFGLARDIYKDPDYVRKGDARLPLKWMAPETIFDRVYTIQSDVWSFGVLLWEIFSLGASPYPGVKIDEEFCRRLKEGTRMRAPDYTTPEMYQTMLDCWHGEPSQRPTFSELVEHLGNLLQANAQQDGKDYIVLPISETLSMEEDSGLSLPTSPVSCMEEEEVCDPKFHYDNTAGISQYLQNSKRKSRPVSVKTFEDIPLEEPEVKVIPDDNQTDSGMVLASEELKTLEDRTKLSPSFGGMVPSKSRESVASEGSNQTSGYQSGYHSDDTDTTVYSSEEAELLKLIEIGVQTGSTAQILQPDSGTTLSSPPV
T5 sequence (P17948 27-1338): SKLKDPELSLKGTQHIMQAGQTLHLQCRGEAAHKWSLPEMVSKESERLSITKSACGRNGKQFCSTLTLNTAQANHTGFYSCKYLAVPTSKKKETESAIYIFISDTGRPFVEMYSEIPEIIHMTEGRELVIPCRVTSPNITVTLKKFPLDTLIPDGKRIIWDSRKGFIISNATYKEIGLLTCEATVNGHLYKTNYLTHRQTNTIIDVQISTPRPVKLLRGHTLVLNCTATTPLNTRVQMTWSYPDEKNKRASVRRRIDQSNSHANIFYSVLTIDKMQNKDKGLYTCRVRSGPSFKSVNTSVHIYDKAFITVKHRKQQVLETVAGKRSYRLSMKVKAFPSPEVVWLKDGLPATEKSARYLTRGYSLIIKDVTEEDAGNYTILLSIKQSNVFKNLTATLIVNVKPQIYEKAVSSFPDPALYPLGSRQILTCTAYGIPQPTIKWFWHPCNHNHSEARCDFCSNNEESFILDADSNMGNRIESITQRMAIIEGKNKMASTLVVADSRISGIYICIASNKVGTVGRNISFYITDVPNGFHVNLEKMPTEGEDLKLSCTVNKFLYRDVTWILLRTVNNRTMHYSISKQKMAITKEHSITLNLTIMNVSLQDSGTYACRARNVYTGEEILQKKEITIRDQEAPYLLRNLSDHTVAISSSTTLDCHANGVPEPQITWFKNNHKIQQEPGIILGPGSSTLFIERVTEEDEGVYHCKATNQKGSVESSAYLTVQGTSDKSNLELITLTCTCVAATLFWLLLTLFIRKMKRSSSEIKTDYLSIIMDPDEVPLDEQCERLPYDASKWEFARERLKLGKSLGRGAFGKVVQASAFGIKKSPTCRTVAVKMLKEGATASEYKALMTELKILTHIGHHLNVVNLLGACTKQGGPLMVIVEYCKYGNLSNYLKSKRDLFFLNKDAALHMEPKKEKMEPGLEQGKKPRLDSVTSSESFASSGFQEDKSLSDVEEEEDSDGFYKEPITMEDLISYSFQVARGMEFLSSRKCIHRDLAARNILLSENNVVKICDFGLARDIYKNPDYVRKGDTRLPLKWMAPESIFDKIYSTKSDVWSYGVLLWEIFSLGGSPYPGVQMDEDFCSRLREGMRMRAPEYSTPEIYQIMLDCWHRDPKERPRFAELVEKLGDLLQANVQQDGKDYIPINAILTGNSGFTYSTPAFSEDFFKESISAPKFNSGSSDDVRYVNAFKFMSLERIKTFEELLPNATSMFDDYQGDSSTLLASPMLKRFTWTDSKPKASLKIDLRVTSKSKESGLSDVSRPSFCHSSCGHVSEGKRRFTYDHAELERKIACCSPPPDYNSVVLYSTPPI
T4 sequence (Q06187 whole entry): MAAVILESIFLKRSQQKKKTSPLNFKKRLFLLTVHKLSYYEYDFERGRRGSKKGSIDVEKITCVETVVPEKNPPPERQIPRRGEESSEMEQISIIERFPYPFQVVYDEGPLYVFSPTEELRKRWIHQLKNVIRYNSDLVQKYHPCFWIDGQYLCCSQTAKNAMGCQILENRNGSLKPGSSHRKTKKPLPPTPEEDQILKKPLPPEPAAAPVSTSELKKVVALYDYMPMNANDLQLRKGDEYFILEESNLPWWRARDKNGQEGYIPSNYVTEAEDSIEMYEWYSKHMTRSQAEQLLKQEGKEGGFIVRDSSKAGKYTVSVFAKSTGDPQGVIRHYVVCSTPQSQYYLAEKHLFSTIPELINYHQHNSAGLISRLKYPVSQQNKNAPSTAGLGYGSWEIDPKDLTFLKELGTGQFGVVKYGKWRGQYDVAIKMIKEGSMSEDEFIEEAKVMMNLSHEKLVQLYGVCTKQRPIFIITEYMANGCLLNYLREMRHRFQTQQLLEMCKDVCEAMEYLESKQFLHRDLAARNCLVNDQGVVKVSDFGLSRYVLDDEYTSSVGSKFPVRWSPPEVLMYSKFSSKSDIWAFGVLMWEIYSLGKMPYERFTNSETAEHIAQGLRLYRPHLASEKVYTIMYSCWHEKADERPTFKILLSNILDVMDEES
T6 sequence (P35916 25-1363): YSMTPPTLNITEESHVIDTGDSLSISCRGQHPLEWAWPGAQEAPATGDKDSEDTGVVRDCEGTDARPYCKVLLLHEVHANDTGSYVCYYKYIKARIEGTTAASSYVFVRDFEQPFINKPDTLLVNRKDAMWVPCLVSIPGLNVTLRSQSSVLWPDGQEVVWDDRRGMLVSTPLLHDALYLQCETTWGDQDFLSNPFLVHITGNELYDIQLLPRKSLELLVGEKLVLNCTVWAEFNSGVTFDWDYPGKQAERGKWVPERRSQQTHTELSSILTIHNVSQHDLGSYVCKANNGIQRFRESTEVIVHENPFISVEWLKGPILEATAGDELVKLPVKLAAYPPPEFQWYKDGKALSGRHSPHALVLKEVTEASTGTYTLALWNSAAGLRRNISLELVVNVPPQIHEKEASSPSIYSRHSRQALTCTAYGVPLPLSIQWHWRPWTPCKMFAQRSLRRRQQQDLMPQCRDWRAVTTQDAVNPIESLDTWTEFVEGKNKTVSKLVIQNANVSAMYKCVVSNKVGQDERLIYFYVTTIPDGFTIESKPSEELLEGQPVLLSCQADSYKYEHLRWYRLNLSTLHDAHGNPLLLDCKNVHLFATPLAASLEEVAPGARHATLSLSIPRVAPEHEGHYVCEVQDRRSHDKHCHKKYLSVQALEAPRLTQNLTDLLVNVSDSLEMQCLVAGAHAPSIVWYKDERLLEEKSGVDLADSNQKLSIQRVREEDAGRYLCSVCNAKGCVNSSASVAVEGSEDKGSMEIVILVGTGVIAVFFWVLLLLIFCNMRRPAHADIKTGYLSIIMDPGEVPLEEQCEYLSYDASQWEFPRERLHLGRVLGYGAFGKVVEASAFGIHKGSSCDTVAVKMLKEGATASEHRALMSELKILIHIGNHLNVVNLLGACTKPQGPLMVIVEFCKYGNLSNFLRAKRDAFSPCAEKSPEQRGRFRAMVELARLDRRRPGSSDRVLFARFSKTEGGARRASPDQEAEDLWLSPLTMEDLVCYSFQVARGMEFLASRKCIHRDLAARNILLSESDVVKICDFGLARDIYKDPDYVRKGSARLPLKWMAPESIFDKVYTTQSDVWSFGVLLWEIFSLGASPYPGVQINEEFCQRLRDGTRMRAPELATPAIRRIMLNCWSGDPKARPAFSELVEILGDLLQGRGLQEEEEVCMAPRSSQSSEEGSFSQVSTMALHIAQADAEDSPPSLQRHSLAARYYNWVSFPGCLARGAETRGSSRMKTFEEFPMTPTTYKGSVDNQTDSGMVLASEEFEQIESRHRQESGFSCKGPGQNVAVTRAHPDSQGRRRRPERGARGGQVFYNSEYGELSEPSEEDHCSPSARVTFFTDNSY
T1 sequence (P52333 822-1111 limits assumed): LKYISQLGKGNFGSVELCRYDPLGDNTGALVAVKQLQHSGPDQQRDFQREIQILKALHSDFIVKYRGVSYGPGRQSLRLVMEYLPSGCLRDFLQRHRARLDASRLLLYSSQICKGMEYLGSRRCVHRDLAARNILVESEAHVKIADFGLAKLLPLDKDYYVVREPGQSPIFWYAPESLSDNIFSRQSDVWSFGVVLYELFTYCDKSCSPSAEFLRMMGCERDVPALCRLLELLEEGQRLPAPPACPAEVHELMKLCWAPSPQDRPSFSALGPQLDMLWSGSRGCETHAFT

## C=CC(=O)Nc1ccc(Sc2nc(Nc3ccc(OC)c(NS(C)(=O)=O)c3)ncc2C)cc1 [Compound 293, N-(4-(2-(4-methoxy-3-(methylsulfonamido)phenylao)-5-methylpyrimidin-4-ylthio)phenyl)acrylamide]
Human JAK3
  IC50: < 100 nM
BaF3 wild-type cells
  IC50: < 5000 nM
Blk(m)
  inhibition at 0.5 µM: 30%
Bmx(h)
  inhibition at 0.5 µM: 79%
BTK(h)
  inhibition at 0.5 µM: 55%
Flt 1(h)
  inhibition at 0.5 µM: 79%
Flt 4(h)
  inhibition at 0.5 µM: 100%
KDR(h)
  inhibition at 0.5 µM: 95%

## C=CC(=O)N(C)c1ccc(Sc2nc(Nc3ccc(N4CCOCC4)cc3)ncc2C)cc1 [Compound 173, N-methyl-N-(4-(5-methyl-2-(4-morpholinophenylao)pyrimidin-4-ylthio)phenyl)acrylamide]
Human JAK3
  IC50: < 100 nM
BaF3 wild-type cells
  IC50: < 20000 nM
Blk(m)
  inhibition at 0.5 µM: 93%
Bmx(h)
  inhibition at 0.5 µM: 94%
BTK(h)
  inhibition at 0.5 µM: 93%
Flt 1(h)
  inhibition at 0.5 µM: 95%
Flt 4(h)
  inhibition at 0.5 µM: 98%
KDR(h)
  inhibition at 0.5 µM: 96%

## C=CC(=O)Nc1ccc(Sc2nc(Nc3ccc(NS(C)(=O)=O)cc3)ncc2C)cc1 [Compound 285, N-(4-(5-methyl-2-(4-(methylsulfonamido)phenylao)pyrimidin-4-ylthio)phenyl)acrylamide]
Human JAK3
  IC50: < 100 nM
BaF3 wild-type cells
  IC50: < 5000 nM
Blk(m)
  inhibition at 0.5 µM: 97%
Bmx(h)
  inhibition at 0.5 µM: 98%
BTK(h)
  inhibition at 0.5 µM: 91%
Flt 1(h)
  inhibition at 0.5 µM: 95%
Flt 4(h)
  inhibition at 0.5 µM: 98%
KDR(h)
  inhibition at 0.5 µM: 94%

— patent US8846704B2, “Thiopyrimidine-based compounds and uses thereof” (YM Biosciences Austraila Pty Ltd, priority 2007, dated 2014)
